Patent publication EP0373543A2, “Diagnostic media and assay for detecting fungicide resistance” (BASF Corporation, priority 1988, dated 1990)

Legend:
[1] = system: Botrytis cinerea; test: Spore germination on agar-dextrose medium containing vinclozolin, microscopic examination (Example 1); format: cell-based; settings: 18 hours room temperature
Description: Resistant and sensitive fungi were initially obtained from crops of cultivated fruit in the field. The percent germination reported below was calculated by microscopic evaluation. An average of four fields of view per plate was examined with each field of view having a total of about 100 to 300 spores. The total number of spores in each field of view was counted then either the number germinated or not germinated, whichever was easiest to count, was determined. These numbers were then combined appropriately and the percent germination calculated. Unless otherwise noted, resistant isolates are given a numerical designation and sensitive isolates a letter designation.
Botrytis cinerea of known sensitivity and resistance to vinclozolin were cultured on potato dextrose agar prepared according to manufacturer's directions and Preparation Example 2 for 2 weeks and induced to sporulate under long wave ultraviolet light. Spores were transferred using a sterile cotton tipped swab to a solid medium containing 20 g of agar, 20 g dextrose and the amount of vinclozolin in parts per million per liter of media shown in Table 1 below. The innoculated media was incubated at room temperature for 18 hours and microscopically examined for germination; the results of this assay are set forth below in Table 1 where "BC" means Botrytis cinerea.

[2] = system: Botrytis cinerea; test: Color change diameter on bromcresol purple media containing vinclozolin (Example 2); format: cell-based; settings: resistant isolates of Botrytis cinerea only; water dextrose media; after 4 days

C=CC1(C)OC(=O)N(c2cc(Cl)cc(Cl)c2)C1=O (stereo not shown) [vinclozolin]
Percent Germination ([1]; isolate BC-1 resistant, vinclozolin 2.5 ppm): 100%
Percent Germination ([1]; isolate BC-1 resistant, vinclozolin 5.0 ppm): 100%
Percent Germination ([1]; isolate BC-1 resistant, vinclozolin 10.0 ppm): 100%
Percent Germination ([1]; isolate BC-2 res., vinclozolin 2.5 ppm): 100%
Percent Germination ([1]; isolate BC-2 res., vinclozolin 5.0 ppm): 100%
Percent Germination ([1]; isolate BC-2 res., vinclozolin 10.0 ppm): 100%
Percent Germination ([1]; isolate BC-3 res., vinclozolin 2.5 ppm): 100%
Percent Germination ([1]; isolate BC-3 res., vinclozolin 5.0 ppm): 90%
Percent Germination ([1]; isolate BC-3 res., vinclozolin 10.0 ppm): 80%
Percent Germination ([1]; isolate BC-4 res., vinclozolin 2.5 ppm): 100%
Percent Germination ([1]; isolate BC-4 res., vinclozolin 5.0 ppm): 100%
Percent Germination ([1]; isolate BC-4 res., vinclozolin 10.0 ppm): 100%
Percent Germination ([1]; isolate BC-5 res., vinclozolin 2.5 ppm): 100%
Percent Germination ([1]; isolate BC-5 res., vinclozolin 5.0 ppm): 100%
Percent Germination ([1]; isolate BC-5 res., vinclozolin 10.0 ppm): 90%
Percent Germination ([1]; isolate BC-6 res., vinclozolin 2.5 ppm): 100%
Percent Germination ([1]; isolate BC-6 res., vinclozolin 5.0 ppm): 100%
Percent Germination ([1]; isolate BC-6 res., vinclozolin 10.0 ppm): 100%
Percent Germination ([1]; isolate BC-A sensitive, vinclozolin 2.5 ppm): 0%
Percent Germination ([1]; isolate BC-A sensitive, vinclozolin 5.0 ppm): 0%
Percent Germination ([1]; isolate BC-A sensitive, vinclozolin 10.0 ppm): 0%
Percent Germination ([1]; isolate BC-B sens., vinclozolin 2.5 ppm): 0%
Percent Germination ([1]; isolate BC-B sens., vinclozolin 5.0 ppm): 0%
Percent Germination ([1]; isolate BC-B sens., vinclozolin 10.0 ppm): 0%
Percent Germination ([1]; isolate BC-C sens., vinclozolin 2.5 ppm): 0%
Percent Germination ([1]; isolate BC-C sens., vinclozolin 5.0 ppm): 0%
Percent Germination ([1]; isolate BC-C sens., vinclozolin 10.0 ppm): 0%
Percent Germination ([1]; isolate BC-D sens., vinclozolin 2.5 ppm): 0%
Percent Germination ([1]; isolate BC-D sens., vinclozolin 5.0 ppm): 0%
Percent Germination ([1]; isolate BC-D sens., vinclozolin 10.0 ppm): 0%
diameter color reaction [2]: 25 mm
